Data: patent publication US11739100B2, “2,3-dihydro-1h-imidazo{1,2-a}pyrimidin-5-one and this 1,2,3,4-tetrahydropyrimido{1,2-a}pyrimidin-6-one derivatives comprising a substituted morpholine, preparation thereof and pharmaceutical use thereof” (SANOFI, priority 2012, dated 2023)

Biological target: T1, recombinant Vps34 (Homo sapiens, UniProt Q8NEB9)
T1 construct: purchased Invitrogen PV5126
Assay: Phosphorylation of phosphatidylinositol (PI) by Vps34 in vitro, ADP detected by TR-FRET (HTRF Transcreener ADP)
Assay type: biochemical
Settings: 10 μM ATP, 55 μg/ml PI, approximately 3 nM Vps34, 1 hour at ambient temperature; absolute IC50, mean of two independent experiments; read-out: IC50 activity range

T1 sequence (Q8NEB9 whole entry): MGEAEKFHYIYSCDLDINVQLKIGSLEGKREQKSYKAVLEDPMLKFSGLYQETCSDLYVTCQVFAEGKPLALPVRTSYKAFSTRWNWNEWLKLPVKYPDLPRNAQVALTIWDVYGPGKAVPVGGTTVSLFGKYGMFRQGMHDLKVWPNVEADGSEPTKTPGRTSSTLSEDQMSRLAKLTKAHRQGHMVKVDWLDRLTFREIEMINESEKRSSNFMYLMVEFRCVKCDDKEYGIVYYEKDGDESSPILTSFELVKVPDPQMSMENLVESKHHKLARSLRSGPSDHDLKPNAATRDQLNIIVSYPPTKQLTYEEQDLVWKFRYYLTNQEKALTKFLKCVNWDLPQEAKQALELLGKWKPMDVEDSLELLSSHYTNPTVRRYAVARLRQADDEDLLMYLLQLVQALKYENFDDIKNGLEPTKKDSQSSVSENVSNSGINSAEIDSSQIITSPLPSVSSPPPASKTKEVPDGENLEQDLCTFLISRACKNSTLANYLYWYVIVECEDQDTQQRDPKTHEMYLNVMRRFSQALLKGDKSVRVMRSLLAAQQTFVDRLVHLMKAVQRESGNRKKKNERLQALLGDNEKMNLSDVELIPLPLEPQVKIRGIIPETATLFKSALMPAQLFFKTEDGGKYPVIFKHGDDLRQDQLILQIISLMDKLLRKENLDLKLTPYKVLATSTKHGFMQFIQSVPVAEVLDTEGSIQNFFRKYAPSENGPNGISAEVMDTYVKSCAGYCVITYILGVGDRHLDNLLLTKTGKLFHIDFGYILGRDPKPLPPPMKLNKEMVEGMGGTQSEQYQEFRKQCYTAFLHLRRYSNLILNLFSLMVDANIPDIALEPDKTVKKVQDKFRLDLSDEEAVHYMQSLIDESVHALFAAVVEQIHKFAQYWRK

SMILES	IC50 [µM]
C[C@@H]1COCCN1c1cc(=O)n2c(n1)N(CC(C)(C)O)[C@H](C(F)(F)F)CC2 [Example 84, (S)-9-(2-Hydroxy-2-methylpropyl)-2-((R)-3-methylmorpholin-4-yl)-8-trifluoromethyl-6,7,8,9-tetrahydro-pyrimido[1,2-a]-pyrimidin-4-one]	< 0.01
C[C@@H]1COCCN1c1cc(=O)n2c(n1)N(Cc1cocn1)[C@](C)(C(F)(F)F)C2 [Example 183, (S)-2-Methyl-7-((R)-3-methylmorpholin-4-yl)-1-oxazol-4-ylmethyl-2-trifluoromethyl-2,3-dihydro-1H-imidazo[1,2-a]-pyrimidin-5-one]	< 0.01
C[C@@H]1COCCN1c1nc2n(c(=O)c1F)CC[C@@H](C(F)(F)F)N2Cc1ccon1 [Example 296, (S)-3-Fluoro-9-isoxazol-3-ylmethyl-2-((R)-3-methyl-morpholin-4-yl)-8-trifluoromethyl-6,7,8,9-tetrahydro-pyrimido[1,2-a]-pyrimidin-4-one]	< 0.01
CC(C)C(=O)CN1CC[C@H](C(F)(F)F)n2c1nc(N1CCOC[C@H]1C)c(F)c2=O [Example 128, (R)-3-Fluoro-2-((R)-3-methylmorpholin-4-yl)-9-(3-methyl-2-oxo-butyl)-6-trifluoromethyl-6,7,8,9-tetrahydro-pyrimido[1,2-a]-pyrimidin-4-one]	< 0.01
COc1cc(N2c3nc(N4CCOC[C@H]4C)c(F)c(=O)n3CC[C@H]2C(F)(F)F)ccn1 [Example 40, (S)-3-Fluoro-9-(2-methoxypyridin-4-yl)-2-((R)-3-Methyl-morpholin-4-yl)-8-trifluoromethyl-6,7,8,9-tetrahydro-pyrimido[1,2-a]-pyrimidin-4-one]	< 0.01
Cc1cc(C(=O)CN2c3nc(N4CCOC[C@H]4C)c(F)c(=O)n3CC[C@H]2C(F)(F)F)no1 [Example 294, (S)-3-Fluoro-9-[2-(5-methylisoxazol-3-yl)-2-oxoethyl]-2-((R)-3-methylmorpholin-4-yl)-8-trifluoromethyl-6,7,8,9-tetrahydro-pyrimido[1,2-a]-pyrimidin-4-one]	< 0.01
CC(=O)CN1c2nc(N3CCOC[C@H]3C)cc(=O)n2CC[C@@]1(C)C(F)(F)F [Example 327, (S)-8-Methyl-2-((R)-3-methylmorpholin-4-yl)-9-(2-oxopropyl)-8-trifluoromethyl-6,7,8,9-tetrahydropyrimido-[1,2-a]pyrimidin-4-one]	< 0.01
Cc1nc(CN2c3nc(N4CCOC[C@H]4C)c(F)c(=O)n3CC[C@H]2C(F)(F)F)no1 [Example 15, (S)-3-Fluoro-2-((R)-3-methylmorpholin-4-yl)-9-(5-methyl-[1,2,4]oxadiazol-3-yl-methyl)-8-trifluoromethyl-6,7,8,9-tetrahydro-pyrimido[1,2-a]-pyrimidin-4-one]	< 0.01
C[C@@H]1COCCN1c1cc(=O)n2c(n1)N(Cc1nc(C(C)(C)C)no1)[C@H](C(F)(F)F)CC2 [Example 228, (S)-9-(3-tert-Butyl-[1,2,4]oxadiazol-5-yl-methyl)-2-((R)-3-methylmorpholin-4-yl)-8-trifluoromethyl-6,7,8,9-tetrahydro-pyrimido[1,2-a]-pyrimidin-4-one]	< 0.01
C[C@@H]1COCCN1c1cc(=O)n2c(n1)N(c1ccnc(Cl)c1)[C@H](C(F)(F)F)CC2 [Example 79, (S)-9-(2-Chloro-pyridin-4-yl)-2-((R)-3-methylmorpholin-4-yl)-8-trifluoromethyl-6,7,8,9-tetrahydro-pyrimido[1,2-a]-pyrimidin-4-one]	< 0.01
Cc1nc(CN2c3nc(N4CCOC[C@H]4C)c(F)c(=O)n3C[C@@]2(C)C(F)(F)F)no1 [Example 30, (S)-6-Fluoro-2-methyl-7-((R)-3-methyl-morpholin-4-yl)-1-(5-methyl-[1,2,4]oxadiazol-3-yl-methyl)-2-trifluoromethyl-2,3-dihydro-1H-imidazo[1,2-a]-pyrimidin-5-one]	< 0.01
C[C@@H]1COCCN1c1cc(=O)n2c(n1)N(CC(=O)C1CCCN1C(=O)OC(C)(C)C)[C@H](C(F)(F)F)CC2 (stereo partly drawn) [Example 261, 2-{2-[(S)-8-((R)-3-Methylmorpholin-4-yl)-6-oxo-2-trifluoromethyl-3,4-dihydro-2H,6H-pyrimido[1,2-a]-pyrimidin-1-yl]acetyl}-pyrrolidine-1-carboxylic acid tert-butyl ester]	0.01 to 0.1
C[C@@H]1COCCN1c1cc(=O)n2c(n1)N(CC(=O)C1CCOCC1)[C@](C)(C(F)(F)F)C2 [Example 190, (S)-2-Methyl-7-((R)-3-methylmorpholin-4-yl)-1-[2-oxo-2-(tetrahydro-pyran-4-yl)ethyl]-2-trifluoromethyl-2,3-dihydro-1H-imidazo[1,2-a]-pyrimidin-5-one]	< 0.01
C[C@@H]1COCCN1c1nc2n(c(=O)c1F)CC[C@@H](C(F)(F)F)N2CC(=O)C1CCOCC1 [Example 18, (S)-3-Fluoro-2-((R)-3-methylmorpholin-4-yl)-9-[2-oxo-2-(tetrahydro-pyran-4-yl)ethyl]-8-trifluoromethyl-6,7,8,9-tetrahydro-pyrimido[1,2-a]-pyrimidin-4-one]	< 0.01
CC1COCC(C)N1c1cc(=O)n2c(n1)N(Cc1ccc(Cl)s1)[C@H](C(F)(F)F)CC2 (stereo in doubt) [Example 152, (S)-9-(5-Chloro-thiophen-2-ylmethyl)-2-((3S,5S)-3,5-dimethylmorpholin-4-yl)-8-trifluoromethyl-6,7,8,9-tetrahydro-pyrimido[1,2-a]-pyrimidin-4-one]	< 0.01
C[C@H](O)CN1c2nc(N3CCOC[C@H]3C)c(F)c(=O)n2CC[C@H]1C(F)(F)F [Example 8, (S)-3-Fluoro-9-((S)-2-hydroxypropyl)-2-((R)-3-methylmorpholin-4-yl)-8-trifluoromethyl-6,7,8,9-tetrahydro-pyrimido[1,2-a]-pyrimidin-4-one]	< 0.01
C[C@@H]1COCCN1c1cc(=O)n2c(n1)N(CCc1ccc(F)cc1)[C@H](C(F)(F)F)CC2 [Example 219, (S)-9-[2-(4-Fluoro-phenyl)ethyl]-2-((R)-3-methylmorpholin-4-yl)-8-trifluoromethyl-6,7,8,9-tetrahydro-pyrimido[1,2-a]-pyrimidin-4-one]	< 0.01
Cc1nnc(CN2c3nc(N4CCOC[C@H]4C)cc(=O)n3CC[C@H]2C(F)(F)F)o1 [Example 96, (S)-2-((R)-3-Methyl-morpholin-4-yl)-9-(5-methyl-[1,3,4]oxadiazol-2-yl-methyl)-8-trifluoromethyl-6,7,8,9-tetrahydro-pyrimido[1,2-a]-pyrimidin-4-one]	< 0.01
CC(C)c1noc(CN2c3nc(N4CCOC[C@H]4C)cc(=O)n3CC[C@H]2C(F)(F)F)n1 [Example 226, (S)-9-(3-Isopropyl-[1,2,4]oxadiazol-5-yl-methyl)-2-((R)-3-methylmorpholin-4-yl)-8-trifluoromethyl-6,7,8,9-tetrahydro-pyrimido[1,2-a]-pyrimidin-4-one]	< 0.01
COCCN1c2nc(N3CCOC[C@H]3C)cc(=O)n2CC[C@H]1C(F)(F)F [Example 90, (S)-9-(2-Methoxy-ethyl)-2-((R)-3-methyl-morpholin-4-yl)-8-trifluoromethyl-6,7,8,9-tetrahydro-pyrimido[1,2-a]-pyrimidin-4-one]	< 0.01
C[C@@H]1COCCN1c1nc2n(c(=O)c1F)CC[C@@H](C(F)(F)F)N2Cc1cocn1 [Example 44, (S)-3-Fluoro-2-((R)-3-methylmorpholin-4-yl)-9-oxazol-4-ylmethyl-8-trifluoromethyl-6,7,8,9-tetrahydro-pyrimido[1,2-a]-pyrimidin-4-one]	< 0.01
